Tests used:
[1] = target: T1, COX-2 (UniProt P35354); experiment: Fast assay for COX-2 activity (PGE2 ELISA); assay type: biochemical, human or murine; conditions: fast assay: 10 min pre-incubation at 25° C., reaction stopped after two minutes, pH 7.5
T1 sequence (P35354 1-604): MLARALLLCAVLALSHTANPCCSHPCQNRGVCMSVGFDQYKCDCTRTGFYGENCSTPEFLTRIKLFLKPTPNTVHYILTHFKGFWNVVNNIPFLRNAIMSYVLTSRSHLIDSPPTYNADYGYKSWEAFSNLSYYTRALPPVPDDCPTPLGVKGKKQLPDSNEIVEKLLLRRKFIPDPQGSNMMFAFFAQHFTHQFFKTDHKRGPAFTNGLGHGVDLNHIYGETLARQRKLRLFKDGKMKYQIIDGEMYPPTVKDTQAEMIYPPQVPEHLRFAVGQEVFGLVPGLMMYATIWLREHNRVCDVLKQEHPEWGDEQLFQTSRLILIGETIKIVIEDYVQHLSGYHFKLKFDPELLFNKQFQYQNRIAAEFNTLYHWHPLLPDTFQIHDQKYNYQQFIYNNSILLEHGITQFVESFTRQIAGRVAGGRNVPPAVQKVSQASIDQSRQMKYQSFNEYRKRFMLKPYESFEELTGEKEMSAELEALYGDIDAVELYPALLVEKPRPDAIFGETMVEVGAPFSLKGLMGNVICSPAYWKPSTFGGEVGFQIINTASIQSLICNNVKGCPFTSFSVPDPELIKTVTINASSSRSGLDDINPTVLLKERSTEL
Description: The homogenate was centrifuged at 10,000×G for 30 minutes, and the resultant supernatant was stored at −80° C. before being assayed for COX activity.
Fast Assay for COX-1 and COX-2 Activity
COX activity was assayed as PGE2 formed/μg protein/time using an ELISA to detect the prostaglandin released. CHAPS-solubilized insect cell membranes containing the appropriate COX enzyme were incubated in a potassium phosphate buffer (0.05 M Potassium phosphate, pH 7.5, 2 μM phenol,1 μM heme, 300 μM epinephrine) with the addition of 20 μl of 100 μM arachidonic acid (10 μM). […] The PGE2 formed was measured by standard ELISA technology (Cayman Chemical).

[2] = target: T1, COX-2; experiment: Assay for COX-2 activity (PGE2 ELISA); conditions: read-out: COX-2 IC50; 10–20 minutes pre-incubation, reaction stopped after ten minutes, pH 8.0
[3] = target: COX-1 (UniProt P23219); experiment: Assay for COX-1 activity (PGE2 ELISA); conditions: read-out: COX-1 IC50; 10–20 minutes pre-incubation, reaction stopped after ten minutes, pH 8.0
Description: Recombinant baculoviruses were isolated by transfecting 4 μg of baculovirus transfer vector DNA into SF9 insect cells (2×10^8) along with 200 ng of linearized baculovirus plasmid DNA by the calcium phosphate method. […] Recombinant viruses were purified by three rounds of plaque purification and high titer (10^7–10^8 pfu/mL) stocks of virus were prepared. For large scale production, SF9 insect cells were infected in 10 liter fermentors (0.5×10^6/mL) with the recombinant baculovirus stock such that the multiplicity of infection was 0.1. […] The homogenate was centrifuged at 10,000×G for 30 minutes, and the resultant supernatant was stored at −80° C. before being assayed for COX activity.
Assay for COX-1 and COX-2 Activity
COX activity was assayed as PGE2 formed/μg protein/time using an ELISA to detect the prostaglandin released. CHAPS-solubilized insect cell membranes containing the appropriate COX enzyme were incubated in a potassium phosphate buffer (50 mM, pH 8.0) containing epinephrine, phenol, and heme with the addition of arachidonic acid (10 μM). […] The PGE2 formed was measured by standard ELISA technology (Cayman Chemical).

Row | SMILES | IC50 [1] [µM] | melting point [°C] | IC50 [2] [µM] | IC50 [3] [µM]
1 | C=Cc1cc(Cl)cc2c1OC(C(F)(F)F)C(C(=O)O)=C2 (stereo not shown) [Example 114, 6-Chloro-8-ethenyl-2-(trifluoramethyl)-2H-1-benzopyran-3-carboxylic acid] | < 0.1 | 183.2 to 185.8 | < 0.1 | < 0.1
2 | O=C(O)C1=Cc2cc(Oc3ccccc3)ccc2OC1C(F)(F)F (stereo not shown) [Example 99, 6-Phenoxy-2-(trifluoromethyl)-2H-1-benzopyran-3-carboxylic acid] | 0.2 | 184.9 to 186.4 | < 0.1 | 23
3 | O=C(O)C1=Cc2cc(Cl)c(Sc3ccccc3)cc2OC1C(F)(F)F (stereo not shown) [Example 195, 6-Chloro-7-(phenylthio)-2-(trifluoromethyl)-2H-1-benzopyran-3-carboxylic acid] | < 0.1 | 271.7 to 274.4 | < 0.1 | 2.6
4 | O=C(O)C1=Cc2cc(Cl)c(Oc3ccc(OC(F)(F)F)cc3)cc2OC1C(F)(F)F (stereo not shown) [Example 187, 6-Chloro-2-(trifluoromethyl)-7-[4-(trifluoromethoxy)phenoxy]-2H-1-benzopyran-3-carboxlic acid] | 2.9 | 198 to 199.2 | 33.7 | > 100
5 | O=C(O)C1=Cc2cc(Cl)c(Oc3ccc(Cl)cc3Cl)cc2OC1C(F)(F)F (stereo not shown) [Example 197, 6-Chloro-7-(2,4-dichlorophenoxy)-2-(trifluoromethyl)-2H-1-benzopyran-3-carboxylic acid] | < 0.1 | 233 to 234 | < 0.1 | 0.4
6 | O=C(O)C1=Cc2cc(C#Cc3ccccc3)ccc2NC1C(F)(F)F (stereo not shown) [Example 211, 1,2-Dihydro-6-(phenylethynyl)-2-(trifluoromethyl)-3-quinolinecarboxylic acid] | 1.9 | 218 to 219 | 2.4 | 3.8
7 | O=C(O)C1=Cc2cc(S(=O)(=O)NCc3ccccc3)ccc2OC1C(F)(F)F (stereo not shown) [Example 49, 6-[[(Phenylmethyl)amino]sulfonyl]-2-trifluoromethyl-2H-1-benzopyran-3-carboxylic acid] | 24 | 223.3 to 224.4 | 31 | > 100
8 | O=C(O)C1=Cc2cc(Oc3ccc(Cl)cc3)ccc2OC1C(F)(F)F (stereo not shown) [Example 104, 6-(4-Chlorophenoxy)-2-(trifluoromethyl)-2H-1-benzopyran-3-carboxylic acid] | < 0.1 | 140.5 to 142.5 | < 0.1 | 8.2
9 | CC(C)(CO)c1cc2c(cc1Cl)C=C(C(=O)O)C(C(F)(F)F)O2 (stereo not shown) [Example 178, 6-Chloro-7-(2-hydroxy-1,1-dimethylethyl)-2-(trifluoromethyl)-2H-1-benzopyran-3-carboxylic acid] | 8.4 | 203.8 to 205.4 | 14.7 | > 100
10 | CC(C)(C)c1cc2c(c(C(C)(C)C)c1)OC(C(F)(F)F)C(C(=O)O)=C2 (stereo not shown) [Example 23, 6,8-bis(1,1-Dimethylethyl)-2-trifluoromethyl-2H-1-benzopyran-3-carboxylic acid] | 7 | 171.6 to 175 | 24 | > 100
11 | O=C(O)C1=Cc2cc(Cl)c(Oc3cccnc3Cl)cc2OC1C(F)(F)F (stereo not shown) [Example 200, 6-Chloro-7-[(2-chloro-3-pyridinyl)oxy]-2-(trifluoromethyl)-2H-1-benzopyran-3-carboxylic acid] | < 0.1 | 213.4 to 216.2 | < 0.1 | 28.5
12 | O=C(O)C1=Cc2cc(Cl)c(-c3ccccc3)cc2OC1C(F)(F)F (stereo not shown) [Example 30, 6-Chloro-7-phenyl-2-trifluoromethyl-2H-1-benzopyran-3-carboxylic acid] | < 0.1 | 185.3 to 187.8 | 16 | 3.8
13 | COc1ccc(Sc2cc3c(cc2Cl)C=C(C(=O)O)C(C(F)(F)F)O3)cc1 (stereo not shown) [Example 191, 6-Chloro-7-[(4-methoxyphenyl)thio]-2-(trifluoromethyl)-2H-1-benzopyran-3-carboxylic acid] | < 0.1 | 239.4 to 242.3 | 42.2 | > 100
14 | COc1ccc(Oc2ccc3c(c2)C=C(C(=O)O)C(C(F)(F)F)O3)cc1Cl (stereo not shown) [Example 9, 6-(3-Chloro-4-methoxyphenoxy)-2-(trifluoromethyl)-2H-1-benzopyran-3-carboxylic acid] | < 0.1 | 205 to 207 | < 0.1 | < 0.1
15 | O=C(O)C1=Cc2cc(Cl)c(Oc3cccc(Cl)c3)cc2OC1C(F)(F)F (stereo not shown) [Example 196, 6-Chloro-7-(3-chlorophenoxy)-2-(trifluoromethyl)-2H-1-benzopyran-3-carboxylic acid] | < 0.1 | 174.1 to 176.1 | 9.5 | 30.3
16 | O=C(O)C1=Cc2cc(-c3ccc(Br)cc3)ccc2OC1C(F)(F)F (stereo not shown) [Example 138, 6-(4-Bromophenyl)-2-(trifluoromethyl)-2H-1-benzopyran-3-carboxylic acid] | 0.3 | 215 to 216 | < 0.1 | 11.1
17 | O=C(O)C1=Cc2cc(Cl)c(Oc3ccc(C(F)(F)F)cc3)cc2OC1C(F)(F)F (stereo not shown) [Example 186, 6-Chloro-2-(trifluoromethyl)-7-[4-(trifluoromethyl)phenoxy]-2H-1-beazopyran-3-carboxylic acid] | < 0.1 | 230.9 to 232 | 3.4 | 32.8
18 | N#Cc1ccc(Oc2cc3c(cc2Cl)C=C(C(=O)O)C(C(F)(F)F)O3)cc1 (stereo not shown) [Example 185, 6-Chloro-7-(4-cyanophenoxy)-2-(trifluoromethyl)-2H-1-benzopyran-3-carboxylic acid] | < 0.1 | 212.5 to 215.7 | < 0.1 | > 100
19 | O=C(O)C1=Cc2cc(S(=O)(=O)N3CCOCC3)ccc2OC1C(F)(F)F (stereo not shown) [Example 53, 6-[(4-Morpholino)sulfonyl]-2-trifluoromethyl-2H-1-benzopyran-3-carboxylic acid] | 8 | 215.2 to 219.3 | 6 | > 100
20 | O=C(O)C1=Cc2cc(Cl)c(Cl)cc2SC1C(F)(F)F (stereo not shown) [Example 154, 6,7-Dichloro-2-(trifluoromethyl)-2H-1-benzothiopyran-3-carboxylic acid] | 0.5 | 262.5 to 263.5 | < 0.1 | 37
21 | O=C(O)C1=Cc2cc(SC(F)(F)F)ccc2SC1C(F)(F)F (stereo not shown) [Example 155, 2-(Trifluoromethyl)-6-[(trifluoromethyl)thio]-2H-1-benzothiopyran-3-carboxylic acid] | < 0.1 | 129.3 to 132.4 | < 0.1 | < 0.1
22 | CCOC(=O)C1=Cc2cc(N)ccc2OC1C(F)(F)F (stereo not shown) [Example 35, Ethyl 6-amino-2-trifluoromethyl-2H-1-benzopyran-3-carboxylate] | 2.2 | 111 to 115 | 1.7 | 11

— patent publication US7138411B2, “Substituted benzopyran derivatives for the treatment of inflammation” (G.D. Searle & Co., priority 1997, dated 2006)
